Data reported in US20070048329A1, “Epstein barr virus peptide epitopes, polyepitopes and delivery system therefor” (priority 2002, published 2007).

System: T cells in PBMC of EBV seropositive donors
Assay: IFN-γ ELISPOT assay, ex vivo stimulation of PBMC with LMP1 peptides
Type: cell-based, human
Protocol: The ELISPOT assay was used to assess whether stimulation of PBMC from a large panel of seropositive donors with LMP1 peptides could induce IFN-γ expression in T cells (Bharadwaj 2001). Briefly, ninety six-well mixed cellulose ester membrane plates (Millipore, Bedford, USA) were precoated with 100 μL/well of […] of anti-IFN-γ mAb, 1-D1K (Mabtech, Stockhohn, Sweden) overnight at 4° C. The plate was washed six times with phosphate-buffered saline (PBS), and unreactive sites blocked using 5% foetal bovine serum. PBMCs from healthy EBV carriers of known HLA types were separated from whole blood by Ficoll-Hypaque (Sigma) density gradient centrifugation. PBMCs were added in triplicate wells at 2.5×10^5 cells in a volume of 100 μL/well, and then peptides were added onto the PBMCs at a final 5 μg/mL concentration. PBMCs were also tested at different concentrations in triplicate wells at 2.5×10^5, 1.5×10^5 and 1×10^5 cells/well. PBMCs with various peptide concentrations, 10 μg/mL, 5 μg/mL and 1 μg/mL, were assayed. For negative controls, PBMCs were incubated in growth medium alone without adding peptides. The plate was incubated at 37° C. with 5% CO2 overnight (about 16-20 hr), then washed thrice with PBST (0.05% of Tween-20 in PBS) and three times with PBS before 100 μL/well of 1 μg/mL anti-IFN-γ mAb, 7-B6-1 (Mabtech, Stockholn, Sweden) was added and incubated at room temperature for 3-4 hr. After incubation, the plate was washed again thrice each with PBST and PBS, and 100 μL/well of 1 μg/mL streptavidin-alkaline phosphatase conjugate (Sigma) was added. The plate was incubated at room temperature for 2 hr. Wells were washed again three times each with PBST and PBS, and individual IFN-γ-producing cells were detected as dark spots after about 30-min to an hour-colour reaction with 5-bromo-4-chloro-3-indolylphosphate and nitroblue tetrazolium using an alkaline phosphatase-conjugated substrate (BCIP/NBT; Sigma). Spots were counted automatically using an image analysis software (ImagePro) (Bharadwaj 2001), and were expressed as spot-forming cells (SFC) per 10^6 PBMCs. The number of IFN-γ-secreting T cells was calculated by subtracting the negative control value from the SFC count.
To comprehensively profile the memory T cell responses against the LMP1 in seropositive virus carriers we used the ELISPOT assay, which allowed rapid ex vivo profiling of LMP1-specific immune response without prolonged in vitro culture. PBMC isolated from a panel of seropositive healthy virus carriers (Table 2) were stimulated with the complete set of overlapping LMP1 peptides and the cells that produced IFN-γ were detected. […] One of the interesting features of these responses was that the majority of the T cell reactivity was directed towards the epitopes within the transmembrane and CTAR1 domains of LMP1, while no reactivity was observed towards the CTAR2 and N-terminus (FIG. 1B). In particular, almost 80% of the CTAR1 domain was targeted for T cell recognition. To identify the T cell subsets responding to these peptides, PBMCs from the seven donors who recognized 17-mer peptides were fractionated into CD4-depleted and CD8-depleted populations and then tested again in ELISPOT assays. […] The CD4-dependent reactivity of the peptide […] was consistent with the previous observations by Leen and colleagues who mapped an HLA DQ2-restricted epitope within this sequence.
In order to determine the frequency of recognition of the HLA class I-restricted LMP1 CTL epitopes, PBMC from a panel of healthy virus carriers of diverse ethnic origin were screened by ELISPOT assays. Four different HLA class I-restricted and one HLA class II-restricted T cell epitopes were included in this analysis. Strong responses were observed against the HLA-A2-restricted […], […] and […] epitopes in 35-45% of the donors tested. […]

[1] = subject nineteen (NPC), donor theta

| Sequence | CTL response (SFC/10^6 PBMC) (subject beta) | CTL response (SFC/10^6 PBMC) (subject eleven) | CTL response (SFC/10^6 PBMC) (subject epsilon) | CTL response (SFC/10^6 PBMC) (subject fifteen) | CTL response (SFC/10^6 PBMC) (subject four) | CTL response (SFC/10^6 PBMC) (subject gamma) | CTL response (SFC/10^6 PBMC) [1] | CTL response (SFC/10^6 PBMC) (subject six) | CTL response (SFC/10^6 PBMC) (subject thirteen) | CTL response (SFC/10^6 PBMC) (subject three) | CTL response (SFC/10^6 PBMC) (subject twenty) | CTL response (SFC/10^6 PBMC) (subject twenty-one) | CTL response (SFC/10^6 PBMC) (subject zeta) | CTL response (SFC/10^6 PBMC) (subject seven) | CTL response (SFC/10^6 PBMC) (subject sixteen) | CTL response (SFC/10^6 PBMC) (subject twelve) | further results |
| --- | --- | --- | --- | --- | --- | --- | --- | --- | --- | --- | --- | --- | --- | --- | --- | --- | --- |
| ALLVLYSFA | 0 SFC/10^6 PBMC | 128 SFC/10^6 PBMC | 0 SFC/10^6 PBMC | 80 SFC/10^6 PBMC | 0 SFC/10^6 PBMC | 0 SFC/10^6 PBMC | 0 SFC/10^6 PBMC | 480 SFC/10^6 PBMC | 0 SFC/10^6 PBMC | 192 SFC/10^6 PBMC | 88 SFC/10^6 PBMC | 592 SFC/10^6 PBMC | 0 SFC/10^6 PBMC |  |  |  | CTL response (SFC/10^6 PBMC) (subject eighteen): 1184 SFC/10^6 PBMC; CTL response (SFC/10^6 PBMC) (subject one): 96 SFC/10^6 PBMC; CTL response (SFC/10^6 PBMC) (subject twenty-two): 10 SFC/10^6 PBMC |
| IALYLQQNW |  | 504 SFC/10^6 PBMC |  |  |  | 0 SFC/10^6 PBMC | 0 SFC/10^6 PBMC | 455 SFC/10^6 PBMC |  |  |  |  |  |  |  |  | HLA B58-positive donors recognizing the epitope (responders/tested): 3/5; CTL response (SFC/10^6 PBMC) (subject delta): 0 SFC/10^6 PBMC; CTL response (SFC/10^6 PBMC) (subject eight): 1952 SFC/10^6 PBMC; CTL response (SFC/10^6 PBMC) (subject eta (NPC)): 0 SFC/10^6 PBMC; CTL response (SFC/10^6 PBMC) (subject five): 100 SFC/10^6 PBMC; CTL response (SFC/10^6 PBMC) (subject fourteen): 955 SFC/10^6 PBMC; CTL response (SFC/10^6 PBMC) (subject nine): 240 SFC/10^6 PBMC; CTL response (SFC/10^6 PBMC) (subject seventeen): 897 SFC/10^6 PBMC; CTL response (SFC/10^6 PBMC) (subject ten): 80 SFC/10^6 PBMC; CTL response (SFC/10^6 PBMC) (subject two): 48 SFC/10^6 PBMC |
| YLLEMLWRL [reference compound] | 0 SFC/10^6 PBMC | 136 SFC/10^6 PBMC | 0 SFC/10^6 PBMC | 300 SFC/10^6 PBMC | 0 SFC/10^6 PBMC | 0 SFC/10^6 PBMC | 0 SFC/10^6 PBMC |  | 0 SFC/10^6 PBMC | 42 SFC/10^6 PBMC | 160 SFC/10^6 PBMC | 66 SFC/10^6 PBMC | 0 SFC/10^6 PBMC | 100 SFC/10^6 PBMC | 20 SFC/10^6 PBMC | 0 SFC/10^6 PBMC |  |
| YLQQNWWTL [reference compound] | 0 SFC/10^6 PBMC | 196 SFC/10^6 PBMC | 0 SFC/10^6 PBMC | 100 SFC/10^6 PBMC | 0 SFC/10^6 PBMC | 0 SFC/10^6 PBMC | 0 SFC/10^6 PBMC |  | 0 SFC/10^6 PBMC | 28 SFC/10^6 PBMC | 244 SFC/10^6 PBMC | 38 SFC/10^6 PBMC | 0 SFC/10^6 PBMC | 110 SFC/10^6 PBMC | 26 SFC/10^6 PBMC | 44 SFC/10^6 PBMC |  |
